Experimental data as given in patent US8012998B2, “Pyrrolidine aryl-ether as NK-3 receptor antagonists” (Hoffmann—LA Roche Inc., priority 2007, dated 2011).

Each compound was assayed against T1, human NK3 receptor (Homo sapiens, UniProt P29371) (assay: [3H]SR142801 competition binding assay (hNK3 receptor binding)). Details: [3H]SR142801 radioligand; membranes from HEK293 cells transiently expressing recombinant human NK3 receptor; Ki by Cheng-Prussoff; read-out: KiNK3 h.
T1 construct: expressed in transfected cells; host or cells: HEK293 cells (transient expression), membrane preparation
T1 sequence (P29371 1-465): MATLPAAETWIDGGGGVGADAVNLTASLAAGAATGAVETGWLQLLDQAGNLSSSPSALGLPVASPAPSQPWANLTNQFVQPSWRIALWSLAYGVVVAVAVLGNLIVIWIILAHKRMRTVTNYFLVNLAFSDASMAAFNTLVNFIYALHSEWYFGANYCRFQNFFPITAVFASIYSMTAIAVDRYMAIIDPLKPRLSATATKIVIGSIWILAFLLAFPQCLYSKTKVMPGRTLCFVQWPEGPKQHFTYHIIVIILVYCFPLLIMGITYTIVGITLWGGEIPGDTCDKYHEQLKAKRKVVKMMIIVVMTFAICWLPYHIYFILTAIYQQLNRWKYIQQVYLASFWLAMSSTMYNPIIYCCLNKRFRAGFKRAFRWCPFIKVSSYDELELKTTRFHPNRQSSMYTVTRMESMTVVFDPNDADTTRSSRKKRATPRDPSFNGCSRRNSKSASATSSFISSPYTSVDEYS
Method: [^3H]SR^142801 Competition Binding Assay
hNK3 receptor binding experiment were performed using [^3H]SR^142801 (Catalog No. TRK1035, specific activity: 74.0 Ci/mmol, Amersham, GE Healthcare UK limited, Buckinghamshire, UK) and membrane isolated from HEK293 cells transiently expressing recombinant human NK3 receptor. After thawing, the membrane homogenates were centrifuged at 48,000×g for 10 min at 4° C., the pellets were resuspended in the 50 mM Tris-HCl, 4 mM MnCl2, 1 μM phosphoramidon, 0.1% BSA binding buffer at pH 7.4 to a final assay concentration of 5 μg protein/well. […] At the end of the incubation, membranes were filtered onto unitfilter (96-well white microplate with bonded GF/C filter preincubated 1 h in 0.3% PEI +0.3% BSA, Packard BioScience, Meriden, Conn.) with a Filtermate 196 harvester (Packard BioScience) and washed 4 times with ice-cold 50 mM Tris-HCl, pH 7.4 buffer. Nonspecific binding was measured in the presence of 10 μM SB222200 for both radioligands. The radioactivity on the filter was counted (5 min) on a Packard Top-count microplate scintillation counter with quenching correction after addition of 45 μl of microscint 40 (Canberra Packard S.A., Zutrich, Switzerland) and shaking for 1 h. Inhibition curves were fitted according to the Hill equation: y=100/(1+(x/IC50)^nH), where nH=slope factor using Excel-fit 4 software (Microsoft). IC50 values were derived from the inhibition curve and the affinity constant (Ki) values were calculated using the Cheng-Prussoff equation Ki=IC50/(1+[L]/KD) where [L] is the concentration of radioligand and KD is its dissociation constant at the receptor, derived from the saturation isotherm. All experiments were performed in duplicate and the mean ± standard error (SEM) of the individual Ki values was calculated.
C[C@@H](Oc1ccc(Cl)cn1)[C@@H]1CN(C(=O)c2ccc(S(C)(=O)=O)nc2)C[C@H]1c1ccc(Cl)c(Cl)c1 (racemic) [Example 47, [(3SR,4RS)-3-[(RS)-1-(5-Chloro-pyridin-2-yloxy)-ethyl]-4-(3,4-dichloro-phenyl)-pyrrolidin-1-yl]-(6-methanesulfonyl-pyridin-3-yl)-methanone] was tested, and the Ki was 12.5 nM.
For C[C@H](Oc1ccc(C#N)cn1)[C@H]1CN(C(=O)c2ccc(-n3ccnc3)nc2)C[C@@H]1c1ccc(Cl)c(Cl)c1 (racemic) [Example 71, 6-{(SR)-1-[(3RS,4SR)-4-(3,4-Dichloro-phenyl)-1-(6-imidazol-1-yl-pyridine-3-carbonyl)-pyrrolidin-3-yl]-ethoxy}-nicotinonitrile], the Ki was 6.1 nM.
COc1ccc(C(=O)N2C[C@@H]([C@@H](C)Oc3ccc(C#N)cn3)[C@H](c3ccc(Cl)c(Cl)c3)C2)cn1 (racemic) [Example 34, 6-{(RS)-1-[(3SR,4RS)-4-(3,4-Dichloro-phenyl)-1-(6-methoxy-pyridine-3-carbonyl)-pyrrolidin-3-yl]-ethoxy}-nicotinonitrile] gave a Ki of 47 nM.
Cc1cc(C(=O)N2C[C@H]([C@H](C)Oc3ccc(C#N)cn3)[C@@H](c3ccc(Cl)c(Cl)c3)C2)cnn1 (racemic) [Example 89, 6-{(SR)-1-[(3RS,4SR)-4-(3,4-Dichloro-phenyl)-1-(6-methyl-pyridazine-4-carbonyl)-pyrrolidin-3-yl]-ethoxy}-nicotinonitrile] gave a Ki of 9.1 nM.
CSc1ccc(C(=O)N2C[C@@H]([C@@H](C)Oc3ccc(Cl)cn3)[C@H](c3ccc(Cl)c(Cl)c3)C2)cn1 (racemic) [Example 45, [(3SR,4RS)-3-[(RS)-1-(5-Chloro-pyridin-2-yloxy)-ethyl]-4-(3,4-dichloro-phenyl)-pyrrolidin-1-yl]-(6-methylsulfanyl-pyridin-3-yl)-methanone] was tested, and the Ki was 7.3 nM.
Compound C[C@@H](Oc1ccc(Cl)cn1)[C@@H]1CN(C(=O)c2ccc(C#N)cc2)C[C@H]1c1ccc(Cl)c(Cl)c1 (racemic) [Example 10, 4-[(3SR,4RS)-3-[(RS)-1-(5-Chloro-pyridin-2-yloxy)-ethyl]-4-(3,4-dichloro-phenyl)-pyrrolidine-1-carbonyl]-benzonitrile] has a Ki of 3.2 nM.
For C[C@H](Oc1ccc(C#N)cn1)[C@H]1CN(C(=O)c2ccc(S(=O)(=O)N(C)C)nc2)C[C@@H]1c1ccc(Cl)c(Cl)c1 (racemic) [Example 58, 5-[(3RS,4SR)-3-[(SR)-1-(5-Cyano-pyridin-2-yloxy)-ethyl]-4-(3,4-dichloro-phenyl)-pyrrolidine-1-carbonyl]-pyridine-2-sulfonic acid dimethylamide], the Ki was 0.5 nM.
Compound Cc1cc(C(=O)N2C[C@@H]([C@@H](C)Oc3ccc(Cl)cn3)[C@H](c3ccc(Cl)c(Cl)c3)C2)c(C)n1C1CC1 (racemic) [Example 31, [(3SR,4RS)-3-[(RS)-1-(5-Chloro-pyridin-2-yloxy)-ethyl]-4-(3,4-dichloro-phenyl)-pyrrolidin-1-yl]-(1-cyclopropyl-2,5-dimethyl-1H-pyrrol-3-yl)-methanone] has a Ki of 5 nM.
For Cc1cc(C(=O)N2C[C@H]([C@H](C)Oc3ccc(Cl)cn3)[C@@H](c3ccc(F)cc3)C2)cnn1 [Example 115, [(3R,4S)-3-[(S)-1-(5-Chloro-pyridin-2-yloxy)-ethyl]-4-(4-fluoro-phenyl)-pyrrolidin-1-yl]-(6-methyl-pyridazin-4-yl)-methanone], the Ki was 4 nM.
Work on C[C@H](Oc1ccc(Cl)cn1)[C@H]1CN(C(=O)c2ccc(C#N)nc2)C[C@@H]1c1ccc(Cl)c(Cl)c1 (single isomer, unassigned) [Example 54] yielded a Ki of 2 nM.
In the case of CCc1ncc(C(=O)N2C[C@H]([C@H](C)Oc3ccc(C#N)cn3)[C@@H](c3ccc(Cl)c(Cl)c3)C2)cc1C (racemic) [Example 86, 6-{(SR)-1-[(3RS,4SR)-4-(3,4-Dichloro-phenyl)-1-(6-ethyl-5-methyl-pyridine-3-carbonyl)-pyrrolidin-3-yl]-ethoxy}-nicotinonitrile], the Ki is reported as 4.3 nM.
COc1ccc(C(=O)N2C[C@@H]([C@@H](C)Oc3ncc(F)cn3)[C@H](c3ccc(Cl)c(Cl)c3)C2)cn1 (racemic) [Example 25, {(3RS,4SR)-3-(3,4-Dichloro-phenyl)-4-[(RS)-1-(5-fluoro-pyrimidin-2-yloxy)-ethyl]-pyrrolidin-1-yl}-(6-methoxy-pyridin-3-yl)-methanone] gave a Ki of 63.3 nM.
C[C@@H](Oc1ccc(Cl)cn1)[C@@H]1CN(C(=O)c2ccc(C#N)cc2)C[C@H]1c1ccc(Cl)c(Cl)c1 (racemic) [Example 49, 4-[(3SR,4RS)-3-[(RS)-1-(5-Chloro-pyridin-2-yloxy)-ethyl]-4-(3,4-dichloro-phenyl)-pyrrolidin-1-carbonyl]-benzonitrile] gave a Ki of 22.3 nM.
For Cc1ncc(C(=O)N2C[C@H]([C@H](C)Oc3ccc(C#N)cn3)[C@@H](c3ccc(Cl)c(Cl)c3)C2)cn1 (racemic) [Example 57, 6-{(SR)-1-[(3RS,4SR)-4-(3,4-Dichloro-phenyl)-1-(2-methyl-pyrimidine-5-carbonyl)-pyrrolidin-3-yl]-ethoxy}-nicotinonitrile], the Ki was 23.4 nM.
Compound Cc1ncc(C(=O)N2C[C@H]([C@H](C)Oc3ccc(C#N)cn3)[C@@H](c3ccc(Cl)c(Cl)c3)C2)c(C)n1 (racemic) [Example 36, 6-{(SR)-1-[(3RS,4SR)-4-(3,4-Dichloro-phenyl)-1-(2,4-dimethyl-pyrimidine-5-carbonyl)-pyrrolidin-3-yl]-ethoxy}-nicotinonitrile] has a Ki of 84 nM.
Work on Cc1cc(C(=O)N2C[C@H]([C@H](C)Oc3ccc(C#N)cn3)[C@@H](c3ccc(Cl)cc3)C2)cnn1 [Example 111, 6-{(S)-1-[(3R,4S)-4-(4-Chloro-phenyl)-1-(6-methyl-pyridazine-4-carbonyl)-pyrrolidin-3-yl]-ethoxy}-nicotinonitrile] yielded a Ki of 3.7 nM.
Cc1ncc(C(=O)N2C[C@H]([C@H](CO)Oc3ccc(Cl)cn3)[C@@H](c3ccc(Cl)c(Cl)c3)C2)cn1 (racemic) [Example 87, [(3RS,4SR)-3-[(RS)-1-(5-Chloro-pyridin-2-yloxy)-2-hydroxy-ethyl]-4-(3,4-dichloro-phenyl)-pyrrolidin-1-yl]-(2-methyl-pyrimidin-5-yl)-methanone] showed a Ki of 56.2 nM.
Cc1ccc(C(=O)N2C[C@@H]([C@@H](C)Oc3ccc(Cl)cn3)[C@H](c3ccc(Cl)c(Cl)c3)C2)cn1 (racemic) [Example 16, [(3SR,4RS)-3-[(RS)-1-(5-Chloro-pyridin-2-yloxy)-ethyl]-4-(3,4-dichloro-phenyl)-pyrrolidin-1-yl]-(6-methyl-pyridin-3-yl)-methanone] was tested, and the Ki was 9.2 nM.
In the case of C[C@H](Oc1ccc(C#N)cn1)[C@H]1CN(C(=O)c2ccc(S(C)(=O)=O)nc2)C[C@@H]1c1ccc(Cl)c(Cl)c1 (racemic) [Example 66, 6-{(SR)-1-[(3RS,4SR)-4-(3,4-Dichloro-phenyl)-1-(6-methanesulfonyl-pyridine-3-carbonyl)-pyrrolidin-3-yl]-ethoxy}-nicotinonitrile], the Ki is reported as 3.8 nM.
Cc1cc(C(=O)N2C[C@@H]([C@@H](C)Oc3ccc(Cl)cn3)[C@H](c3ccc(Cl)c(Cl)c3)C2)ccn1 (racemic) [Example 15, [(3SR,4RS)-3-[(RS)-1-(5-Chloro-pyridin-2-yloxy)-ethyl]-4-(3,4-dichloro-phenyl)-pyrrolidin-1-yl]-(2-methyl-pyridin-4-yl)-methanone] gave a Ki of 6.3 nM.
